Results on one compound are retold here after patent US11992552B2, “Geometric configurations for gastric residence systems” (Lyndra Therapeutics, Inc., priority 2015, dated 2024).

Series [1] is described as follows: Shear-lap joint adhesion test (ASTM D3163) of enteric materials. The class given is physicochemical. The conditions noted are these: plasticizer with Eudragit L100-55 (70%/30% enteric material/plasticizer), acetone as solvent, PCL sheets. An excerpt: The influence of solvent (acetone, isopropyl alcohol, and ethyl acetate) and plasticizer (Eudragit NM, Plastoid B, Triethyl Citrate, and Triacetin) on the adhesion force of enteric materials were quantified using ASTM D3163, a standardized shear-lap joint mechanical test. The top figure A illustrates a side view of the experimental setup. Two 2-mm thick PCL (Mn 55 k) polymer sheets are adhered to an enteric material, Eudragit L100-55 (methyl methacrylate) combined with a plasticizer (in a 70%/30% enteric material/plasticizer ratio), using a solvent and pressure. The polymer sheets are then loaded into a tensile testing machine and pulled apart. The force/stress that causes the linker-polymer bond to break is recorded.

Series [2] is described as follows: Behaviour over seven days in simulated gastric fluid. The series is classed as physicochemical.

For `CC(=O)OCC(COC(C)=O)OC(C)=O` [Triacetin], in series [1], the adhesion force result is given as “greatest adhesion force”. The “release of plasticizer from a polymer formulation” value in series [2] is listed as “releases from a polymer formulation in a time-dependent manner over seven days”.
